Test results taken from patent publication US20230225973A1, “MULTI-LAYERED MEDICAMENT FOR INHALATION” (Mylan Pharma UK Limited, priority 2020, published 2023).

What was measured:
[1] = Aerosolization performance: TIR and FPM from a next generation impactor (NGI), equivalence of MGR001/MGR002 with MGR003; format: physicochemical; conditions: for FPM, Pass/fail (0.90-1.11) / TIR, Pass/fail (0.90-1.11): 90% CI of ratio of geometric means within 0.90-1.11
Excerpt: The same batches for MGR002 and MGR003 were utilized in obtaining emitted data used to obtain aerosolization performance information. Table 5 below presents the results and equivalence criteria, respectively for 5-[3-(3-Hydroxyphenoxy)azetidin-1-yl]-5-methyl-2,2-diphenylhexanamide hydrochloride of formula II, fluticasone propionate and salmeterol.
The […] (FPM) and mean total impactor recovery (TIR) from a next generation impactor (NGI) for each batch were equivalent, based on the fact that the upper/lower 90% confidence interval of the ratio of the geometric mean, rested between 0.90 and 1.11. […] The fluticasone propionate and salmeterol xinafoate components of the MGR003 drug product also met the same performance targets as the MGR001 250/50 drug product.

[2] = Comparison of fine particle dose (FPD) performance of blended combination, layer filled combination and baseline products; format: physicochemical; conditions: FIG. 6; product T3 (low shear triple blend)
Protocol: The two options were to either: 1) layer fill blends of the individual products or; 2) low shear mix blends of the individual products. The individual products were either 0.58% w/w salmeterol xinafoate/4% w/w fluticasone propionate combination blend or 4.8% w/w 5-[3-(3-Hydroxyphenoxy)azetidin-1-yl]-5-methyl-2,2-diphenylhexanamide hydrochloride blend.
Four products (L1, L2, L3, and T3) were prepared as outline below. Products L1 and L2 were the baseline products for the layer filled combination product L3, and the blended combination product, T3.
The blend is made of 4.8% w/w 5-[3-(3-Hydroxyphenoxy)azetidin-1-yl]-5-methyl-2,2-diphenylhexanamide hydrochloride mixed with lactose monohydrate in a Diosna high shear blender. The nominal dose of 5-[3-(3-Hydroxyphenoxy)azetidin-1-yl]-5-methyl-2,2-diphenylhexanamide hydrochloride per pocket is 264 mcg.
The blend is made of 0.58% w/w salmeterol xinafoate and 4% w/w fluticasone propionate mixed with lactose monohydrate in a Diosna high shear blender. The nominal doses of salmeterol xinafoate and fluticasone propionate per pocket are 72.5 mcg and 500 mcg, respectively.
The salmeterol xinafoate/fluticasone propionate blend is made of 0.58% w/w salmeterol xinafoate and 4% w/w fluticasone propionate mixed with lactose monohydrate in a Diosna high shear blender. The 5-[3-(3-Hydroxyphenoxy)azetidin-1-yl]-5-methyl-2,2-diphenylhexanamide hydrochloride blend is made of 4.8% w/w 5-[3-(3-Hydroxyphenoxy)azetidin-1-yl]-5-methyl-2,2-diphenylhexanamide hydrochloride mixed with lactose monohydrate in a Diosna high shear blender. The nominal doses of salmeterol xinafoate, fluticasone propionate and 5-[3-(3-Hydroxyphenoxy)azetidin-1-yl]-5-methyl-2,2-diphenylhexanamide hydrochloride per pocket are 72.5 mcg, 500 mcg and 264 mcg, respectively.
The triple blend is prepared by mixing with a low shear Turbula mixer, a 0.58% w/w salmeterol xinafoate, 4% w/w fluticasone propionate blend with 4.8% w/w 5-[3-(3-Hydroxyphenoxy)azetidin-1-yl]-5-methyl-2,2-diphenylhexanamide hydrochloride blend in the ratio 12.5:5.5. […]

[3] = FPM from next generation impactor
[4] = mean total impactor recovery, next generation impactor

FPM, ratio of geometric means (MGR002 divided by MGR003) [1, 3] | FPM, Pass/fail (0.90-1.11) ([1]; MGR002 versus MGR003) | TIR, Pass/fail (0.90-1.11) ([1]; MGR002 versus MGR003) | TIR, ratio of geometric means (MGR002 divided by MGR003) [1, 4] | FPD of the individual drug in blended combination product T3 versus baseline product [2] | FPM, ratio of geometric means (MGR001 divided by MGR003) [1, 3] | FPM, Pass/fail (0.90-1.11) ([1]; MGR001 versus MGR003) | TIR, Pass/fail (0.90-1.11) ([1]; MGR001 versus MGR003) | TIR, ratio of geometric means (MGR001 divided by MGR003) [1, 4] | SMILES
0.95 | Pass | Pass | 0.97 | much lower FPD | – | – | – | – | CC(C)(CCC(C(N)=O)(c1ccccc1)c1ccccc1)N1CC(Oc2cccc(O)c2)C1.Cl [5-[3-(3-Hydroxyphenoxy)azetidin-1-yl]-5-methyl-2,2-diphenylhexanamide hydrochloride]
– | – | – | – | slightly lowered FPD | 0.99 | Pass | Pass | 0.96 | CCC(=O)O[C@]1(C(=O)SCF)[C@H](C)C[C@H]2[C@@H]3C[C@H](F)C4=CC(=O)C=C[C@]4(C)[C@@]3(F)[C@@H](O)C[C@@]21C [Fluticasone propionate, fluticasone propionate]
– | – | – | – | more variability | 1.01 | Pass | Pass | 0.97 | OCc1cc(C(O)CNCCCCCCOCCCCc2ccccc2)ccc1O (stereo not drawn) [Salmeterol, salmeterol xinafoate]
